This note sets out measurements from PubChem BioAssay (NCI).

Among the test systems are SNB-19 CNS; A498 renal; RPMI-8226 leukemia; PC-3 prostate; COLO 205 colon; HCT-116 colon; HL-60(TB) leukemia; M14 melanoma; HCT-15 colon; MDA-N; OVCAR-5 ovarian.
Experiment in all cases: NCI tumour cell line growth inhibition, 48 h

The structures appear in SMILES notation.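 48-hour exposure; five concentrations; linearly interpolated endpoints. TGI: concentration producing complete growth inhibition.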 A value given as a limit tells only on which side of the number the result lay.

On to `O=C1O[C@H]2[C@@H]3OC(=O)c4cc(O)c(O)c(O)c4-c4c(cc(O)c(O)c4O)C(=O)OC[C@H]2O[C@@H](OC(=O)c2cc(O)c(O)c(O)c2)[C@@H]3OC(=O)c2cc(O)c(O)c3c2[C@@H]2C1=CC(=O)C(O)(O)C2(O)O3` (some centres undefined), for which the TGI with SNB-19 CNS was greater than 100 µM; in the experiment on A498 renal it was greater than 100 µM; in the experiment on RPMI-8226 leukemia it was greater than 100 µM; in the experiment with PC-3 prostate it was greater than 100 µM; in the experiment with COLO 205 colon, greater than 100 µM; with HCT-116 colon it was 32 µM. Further, the TGI with HL-60(TB) leukemia was greater than 100 µM; in the experiment on M14 melanoma, greater than 100 µM; in the experiment with HCT-15 colon, greater than 100 µM; in the experiment with MDA-N, 34.6 µM; in the experiment on OVCAR-5 ovarian, 67.1 µM.

`CC1(C)CC[C@]2(C(=O)O)CC[C@]3(C)C(=CC[C@@H]4[C@@]5(C)CC[C@H](OC6OC(CO)C(O)C(O)C6OC6OC(CO)C(O)C(O)C6O)C(C)(C)[C@@H]5CC[C@]43C)[C@@H]2C1` (some centres undefined): the TGI is 32.8 µM in the experiment on SNB-19 CNS; 34 µM in the experiment on A498 renal; 62.3 µM in the experiment with RPMI-8226 leukemia; 31.2 µM in the experiment with PC-3 prostate; 28.7 µM in the experiment with COLO 205 colon; 31.9 µM with HCT-116 colon. Besides, the TGI in the experiment with HL-60(TB) leukemia amounted to 42.8 µM; with M14 melanoma, 31.2 µM; in the experiment on HCT-15 colon it was 35.3 µM; in the experiment on MDA-N it was 34.8 µM; with OVCAR-5 ovarian it was 12.5 µM.

For the compound `O=C1C[C@H]2[C@H](c3ccc(Br)cc3)[C@H]3C(=O)c4ccccc4NC(=O)[C@@H]3[C@@]2(O)c2ccccc2N1`, the TGI with SNB-19 CNS is greater than 100 µM; with A498 renal, 78.8 µM; with RPMI-8226 leukemia, 62.4 µM; with PC-3 prostate, greater than 100 µM; in the experiment on COLO 205 colon, 40.2 µM; in the experiment on HCT-116 colon it was 33.1 µM. Moreover, the TGI in the experiment with HL-60(TB) leukemia is 15.3 µM; with M14 melanoma, 29 µM; in the experiment with HCT-15 colon, greater than 100 µM; in the experiment on MDA-N it was 55 µM; with OVCAR-5 ovarian, 91.9 µM.

`CCN(CC)c1nc(N(C)C)c2cc(OC)ccc2n1`: the TGI is greater than 100 µM in the experiment with SNB-19 CNS; greater than 100 µM with A498 renal; 61.2 µM in the experiment with RPMI-8226 leukemia; greater than 100 µM in the experiment with PC-3 prostate; 28.2 µM in the experiment on COLO 205 colon; greater than 100 µM with HCT-116 colon. Besides, the TGI in the experiment with HL-60(TB) leukemia is 67 µM; in the experiment on M14 melanoma it was greater than 100 µM; in the experiment with HCT-15 colon, greater than 100 µM; in the experiment on MDA-N, greater than 100 µM; with OVCAR-5 ovarian it was greater than 100 µM.

Regarding `COC(Cc1ccccc1)NC(C)=O` (centres undefined), the TGI in the experiment on SNB-19 CNS, in the experiment on A498 renal, with RPMI-8226 leukemia, in the experiment on PC-3 prostate, with COLO 205 colon and in the experiment with HCT-116 colon was greater than 100 µM throughout. Moreover, the TGI in the experiment with HL-60(TB) leukemia, in the experiment on M14 melanoma, in the experiment on HCT-15 colon, in the experiment with MDA-N and in the experiment with OVCAR-5 ovarian was greater than 100 µM throughout.

For `Cc1c2cccc-2c(OCCO)cc2c1[nH]c1ccccc12`, the TGI in the experiment with SNB-19 CNS is 18.6 µM; in the experiment on A498 renal it was greater than 31.6 µM; with RPMI-8226 leukemia, 8.52 µM; with PC-3 prostate, 7.89 µM; with COLO 205 colon it was 9.4 µM; in the experiment with HCT-116 colon it was greater than 23.2 µM. Further, the TGI is greater than 19.9 µM with HL-60(TB) leukemia; 4.36 µM in the experiment with M14 melanoma; 22.9 µM with HCT-15 colon; 7.9 µM with MDA-N; 5.83 µM in the experiment on OVCAR-5 ovarian.

For `CCCCCCCCCCCCP(=O)(O)OCC(N)C(=O)O` (centres undefined), the TGI in the experiment on SNB-19 CNS is 44.7 µM; in the experiment with A498 renal, 70.6 µM; with RPMI-8226 leukemia it was 91.9 µM; in the experiment with PC-3 prostate, 36.9 µM; with COLO 205 colon, greater than 100 µM; with HCT-116 colon, 30.3 µM. Moreover, the TGI in the experiment with HL-60(TB) leukemia is 36.1 µM; with M14 melanoma, greater than 100 µM; with HCT-15 colon it was 41.3 µM; with MDA-N it was 55.4 µM; with OVCAR-5 ovarian, greater than 100 µM.

Regarding `Cn1cnc([N+](=O)[O-])c1Sc1nc(N)nc2c1ncn2Cc1ccccc1`, the TGI in the experiment on SNB-19 CNS is greater than 100 µM; in the experiment with A498 renal, 68.3 µM; in the experiment with RPMI-8226 leukemia, 72.5 µM; in the experiment with PC-3 prostate, 36.3 µM; in the experiment on COLO 205 colon, 32.1 µM; in the experiment on HCT-116 colon, 42.1 µM. In addition, the TGI with HL-60(TB) leukemia was determined as 47.7 µM; in the experiment on M14 melanoma, 69 µM; in the experiment with HCT-15 colon it was 45.8 µM; with MDA-N it was 44.9 µM; in the experiment on OVCAR-5 ovarian it was 63.1 µM.

For `COC(=O)c1scc(N)c1-n1ccc(=O)[nH]c1=O`, the TGI in the experiment with SNB-19 CNS, with A498 renal, with RPMI-8226 leukemia, in the experiment with PC-3 prostate, in the experiment on COLO 205 colon and with HCT-116 colon was greater than 100 µM throughout. The TGI in the experiment with HL-60(TB) leukemia, in the experiment with M14 melanoma, with HCT-15 colon, in the experiment with MDA-N and in the experiment on OVCAR-5 ovarian was greater than 100 µM in each case.

As to `CC(=O)O[C@H]1[C@@H](N2CCN(C)CC2)C[C@H]2[C@@H]3CC=C4C[C@@H](N5CCCC5)CC[C@]4(C)[C@H]3CC[C@@]21C`, the TGI is greater than 100 µM in the experiment with SNB-19 CNS; greater than 100 µM in the experiment with A498 renal; 44.2 µM with RPMI-8226 leukemia; greater than 100 µM in the experiment on PC-3 prostate; greater than 100 µM with COLO 205 colon; greater than 100 µM in the experiment with HCT-116 colon. The TGI was 30.1 µM in the experiment with HL-60(TB) leukemia; 34.5 µM in the experiment with M14 melanoma; greater than 100 µM in the experiment on HCT-15 colon; greater than 100 µM with MDA-N; greater than 100 µM with OVCAR-5 ovarian.

For `CCCCOC(=O)C1CN2C(=NC1(C(F)(F)F)C(F)(F)F)Sc1ccccc12` (centres undefined), the TGI in the experiment on SNB-19 CNS is greater than 100 µM; in the experiment with A498 renal, greater than 100 µM; in the experiment on RPMI-8226 leukemia, greater than 100 µM; in the experiment on PC-3 prostate it was 42.4 µM; in the experiment on COLO 205 colon it was greater than 100 µM; in the experiment with HCT-116 colon, greater than 100 µM. The TGI in the experiment on HL-60(TB) leukemia was 68.9 µM; with M14 melanoma, greater than 100 µM; in the experiment on HCT-15 colon, greater than 100 µM; in the experiment with MDA-N, greater than 100 µM; in the experiment on OVCAR-5 ovarian, greater than 100 µM.

On to `CC1(C)O[C@@H]2[C@@H]3OC(=O)C[C@@H]3[C@@H](COCc3ccccc3)[C@@H]2O1`, for which the TGI with SNB-19 CNS, in the experiment on A498 renal, in the experiment with RPMI-8226 leukemia, in the experiment with PC-3 prostate, in the experiment with COLO 205 colon and with HCT-116 colon was greater than 100 µM each time. The TGI in the experiment on HL-60(TB) leukemia, in the experiment on M14 melanoma, in the experiment on HCT-15 colon, in the experiment with MDA-N and with OVCAR-5 ovarian was greater than 100 µM throughout.

Consider `CC1Cc2cc(O)ccc2C2[C@@H]1C1CC[C@H](O)[C@@]1(C)C[C@@H]2O[N+](=O)[O-]` (some centres undefined), for which the TGI in the experiment with SNB-19 CNS is 98.7 µM; in the experiment on A498 renal it was 78.7 µM; with RPMI-8226 leukemia, 50.2 µM; in the experiment on PC-3 prostate it was greater than 100 µM; in the experiment with COLO 205 colon, 50.6 µM; in the experiment with HCT-116 colon, 31.1 µM. Moreover, the TGI with HL-60(TB) leukemia is 8.3 µM; in the experiment with M14 melanoma, 64.1 µM; in the experiment with HCT-15 colon it was greater than 78.7 µM; in the experiment with MDA-N, 6.07 µM; in the experiment with OVCAR-5 ovarian it was greater than 100 µM.

Take `CN1CCN(c2ccc(-n3cc(C(=O)O)c(=O)c4cc(F)c(N5CCN(C)CC5)cc43)nc2)CC1`: the TGI in the experiment with SNB-19 CNS, in the experiment with A498 renal, in the experiment with RPMI-8226 leukemia, in the experiment on PC-3 prostate, in the experiment on COLO 205 colon and with HCT-116 colon was greater than 100 µM each time. The TGI in the experiment on HL-60(TB) leukemia, with M14 melanoma, in the experiment with HCT-15 colon, in the experiment on MDA-N and in the experiment with OVCAR-5 ovarian was greater than 100 µM in each case.

Take `C=C(C(=O)O)[C@@H]1C[C@@H]2O[C@H]1CC(C)=CCC/C(C)=C/CC[C@@]2(C)O`: the TGI with SNB-19 CNS, in the experiment with A498 renal, in the experiment with RPMI-8226 leukemia, in the experiment with PC-3 prostate, in the experiment on COLO 205 colon and in the experiment on HCT-116 colon was greater than 100 µM in each case. For the same compound, the TGI in the experiment on HL-60(TB) leukemia, in the experiment with M14 melanoma, in the experiment with HCT-15 colon, in the experiment with MDA-N and in the experiment with OVCAR-5 ovarian was greater than 100 µM in each case.

For `CC(C)=CCC[C@H](C)[C@H]1CC[C@@H](C)c2cc(O)c(C)cc21`, the TGI in the experiment on SNB-19 CNS stood at 31.6 µM; in the experiment on A498 renal it was 30.7 µM; with RPMI-8226 leukemia it was 56.2 µM; in the experiment on PC-3 prostate, 31.3 µM; with COLO 205 colon it was 34.3 µM; in the experiment on HCT-116 colon, 32.9 µM. Also, the TGI in the experiment with HL-60(TB) leukemia amounted to 41.7 µM; in the experiment on M14 melanoma it was 33.9 µM; in the experiment on HCT-15 colon, 35.1 µM; with MDA-N, 32.1 µM; in the experiment with OVCAR-5 ovarian it was 30.7 µM.

For the compound `O=C(/C(=C/c1cccs1)c1ccccc1)c1ccccc1`, the TGI with SNB-19 CNS, in the experiment on A498 renal, in the experiment on RPMI-8226 leukemia, with PC-3 prostate, in the experiment with COLO 205 colon and in the experiment on HCT-116 colon was greater than 100 µM in each case. Besides, the TGI in the experiment on HL-60(TB) leukemia, with M14 melanoma, with HCT-15 colon, in the experiment with MDA-N and with OVCAR-5 ovarian was greater than 100 µM in each case.

In the case of `CCOP(=O)(OCC)/C(C#N)=C/c1c(C)[nH]c2ccccc12`, the TGI with SNB-19 CNS, with A498 renal, in the experiment with RPMI-8226 leukemia, with PC-3 prostate, in the experiment with COLO 205 colon and in the experiment on HCT-116 colon was greater than 100 µM each time. Further, the TGI in the experiment on HL-60(TB) leukemia, in the experiment on M14 melanoma, with HCT-15 colon, in the experiment with MDA-N and in the experiment with OVCAR-5 ovarian was greater than 100 µM throughout.

For the compound `CCOC1SC(SC)=NN1C(=O)C(OC(C)=O)C(OC(C)=O)C(OC(C)=O)C(OC(C)=O)C(=O)N1N=C(SC)SC1OCC` (centres undefined), the TGI in the experiment on SNB-19 CNS, in the experiment with A498 renal, in the experiment with RPMI-8226 leukemia, in the experiment with PC-3 prostate, in the experiment on COLO 205 colon and with HCT-116 colon was greater than 100 µM each time. The TGI in the experiment on HL-60(TB) leukemia, in the experiment with M14 melanoma, in the experiment on HCT-15 colon, in the experiment with MDA-N and with OVCAR-5 ovarian was greater than 100 µM each time.
